One compound from US10336707B2, “Heterocyclic derivatives modulating activity of certain protein kinases” (EUDENDRON S.R.L., priority 2014, dated 2019) can be followed below.

The subject of assay [1] is NPM/ALK positive SUPM2. The experiment in a line: Tritiated thymidine uptake cell proliferation assay, SUPM2. The format is cell-based. As to conditions: SUP-M2; cell line SUPM2; read-out: IC50 of cellular proliferation, SUPM2. The procedure:
(§1) Method: Tritiated Thymidine Uptake Cell Proliferation Assay
(§2) The following procedure was used with parent untransformed BaF3 cells, BaF3 cells transformed with the oncogenic fusion protein NPM/ALK, NPM/ALK positive SUDHL-1 cells, NPM/ALK positive SUPM2, ALK-negative HL60 cells, NPM/ALK positive KARPAS-299 cells. The parent untransformed BaF3 cells or Alk-negative HL60 cells are used as controls. Cells were seeded in U-bottomed 96-well plates at 10000 cells/well in a volume of 100 μl in supplemented medium. In the case of the parent untransformed BaF3 cells, the medium was supplemented with IL-3. Serial dilutions of inhibitors were added to the appropriate wells and volumes adjusted to 200 μl. Controls were treated with the equivalent volume of vehicle, DMSO, alone. Plates were incubated at 37° C. for 72 h. 3[H]-thymidine (1 μCi/well) was added for the last 16 h of incubation. Cells were harvested on to paper filters and 3[H]-thymidine incorporation was measured using a scintillation counter (1430 MicroBeta, Wallac, Turku, Finland). The 50% inhibitory concentration (IC50) was defined as the concentration of inhibitor, expressed in nanomolar units, that gave a 50% decrease in 3[H]-thymidine uptake compared with controls.
(§3) In Table 4 are reported the IC50 of cellular proliferation assays of example 3 versus ALK positive, mutated and negative cell lines.

Assay [2] concerns the target T1, FYN (Homo sapiens, UniProt P06241).
T1 construct: either as full-length or enzymatically active fragments; purchased ProQinase GmbH (Freiburg, Germany)
Briefly: Radiometric protein kinase assay (33PanQuinase Activity Assay), FYN. The format is biochemical. The settings on record: ATP 0.3 μM. Here is the method:
A proprietary radiometric protein kinase assay (33PanQuinase® Activity Assay) developed by ProQuinase GmbH (Freiburg, Germany) was used for measuring the kinase activity of selected protein kinases. All assays were performed in FlashPlates™ wells 96 Perkin Elmer (Boston, Mass., USA) in a reaction volume of 50 μl. The reaction mixture was obtained in 4 steps in the following order: • 1. 10 μl of a solution of non-radioactive ATP in water; • 2. 25 μl of assay buffer/[γ-^33P]-ATP mixture • 3. 5 μl of test sample in 10% DMSO • 4. 10 μl of enzyme/substrate mixture
All protein kinases provided by ProQinase were expressed in Sf9 insect cells or in E. coli as recombinant GST-fusion proteins or His-tagged proteins, either as full-length or enzymatically active fragments. […] Kinases from external vendors (CAR=Carna Biosciences Inc.; INV=Life Technologies (Invitrogen Corporation); MIL=Merck-Millipore (Millipore Corporation), were expressed, purified and quality-controlled by virtue of the vendors readings.
A stock solution of compound of formula (I) was diluted to 5×10-04M/100% DMSO. […] Incorporation of 33Pi (counting of “cpm”) was determined with a microplate scintillation counter (Microbeta, Wallac). […]
Based on each 10 corresponding residual activities, IC50 values were calculated using Prism 5.04 for Windows (Graphpad, San Diego, Calif.). […]

Assay [3] concerns NPM/ALK positive SUDHL-1 cells. The experiment in a line: Tritiated thymidine uptake cell proliferation assay, SUDHL1. As to conditions: Homo sapiens, SU-DHL-1; cell line SUDHL1; read-out: IC50 of cellular proliferation, SUDHL1. The format is cell-based. Here is the method: as §1, §2, §3
Assay [4] concerns the target T2, BaF3 NPM-ALK L1152R (Homo sapiens, UniProt Q9UM73, L1152R, cells depend on it).
T2 construct: fused on or other part: P06748 (Nucleophosmin)
The experiment in a line: Tritiated thymidine uptake cell proliferation assay, BaF3 NPM-ALK L1152R. The assay is classed as cell-based, murine. As to conditions: cell line BaF3 NPM-ALK L1152R; read-out: IC50 of cellular proliferation, BaF3 NPM-ALK L1152R. The procedure:
as §1, §2, §3

T2 sequence (Q9UM73 whole entry L1152R, the tested form may be a part): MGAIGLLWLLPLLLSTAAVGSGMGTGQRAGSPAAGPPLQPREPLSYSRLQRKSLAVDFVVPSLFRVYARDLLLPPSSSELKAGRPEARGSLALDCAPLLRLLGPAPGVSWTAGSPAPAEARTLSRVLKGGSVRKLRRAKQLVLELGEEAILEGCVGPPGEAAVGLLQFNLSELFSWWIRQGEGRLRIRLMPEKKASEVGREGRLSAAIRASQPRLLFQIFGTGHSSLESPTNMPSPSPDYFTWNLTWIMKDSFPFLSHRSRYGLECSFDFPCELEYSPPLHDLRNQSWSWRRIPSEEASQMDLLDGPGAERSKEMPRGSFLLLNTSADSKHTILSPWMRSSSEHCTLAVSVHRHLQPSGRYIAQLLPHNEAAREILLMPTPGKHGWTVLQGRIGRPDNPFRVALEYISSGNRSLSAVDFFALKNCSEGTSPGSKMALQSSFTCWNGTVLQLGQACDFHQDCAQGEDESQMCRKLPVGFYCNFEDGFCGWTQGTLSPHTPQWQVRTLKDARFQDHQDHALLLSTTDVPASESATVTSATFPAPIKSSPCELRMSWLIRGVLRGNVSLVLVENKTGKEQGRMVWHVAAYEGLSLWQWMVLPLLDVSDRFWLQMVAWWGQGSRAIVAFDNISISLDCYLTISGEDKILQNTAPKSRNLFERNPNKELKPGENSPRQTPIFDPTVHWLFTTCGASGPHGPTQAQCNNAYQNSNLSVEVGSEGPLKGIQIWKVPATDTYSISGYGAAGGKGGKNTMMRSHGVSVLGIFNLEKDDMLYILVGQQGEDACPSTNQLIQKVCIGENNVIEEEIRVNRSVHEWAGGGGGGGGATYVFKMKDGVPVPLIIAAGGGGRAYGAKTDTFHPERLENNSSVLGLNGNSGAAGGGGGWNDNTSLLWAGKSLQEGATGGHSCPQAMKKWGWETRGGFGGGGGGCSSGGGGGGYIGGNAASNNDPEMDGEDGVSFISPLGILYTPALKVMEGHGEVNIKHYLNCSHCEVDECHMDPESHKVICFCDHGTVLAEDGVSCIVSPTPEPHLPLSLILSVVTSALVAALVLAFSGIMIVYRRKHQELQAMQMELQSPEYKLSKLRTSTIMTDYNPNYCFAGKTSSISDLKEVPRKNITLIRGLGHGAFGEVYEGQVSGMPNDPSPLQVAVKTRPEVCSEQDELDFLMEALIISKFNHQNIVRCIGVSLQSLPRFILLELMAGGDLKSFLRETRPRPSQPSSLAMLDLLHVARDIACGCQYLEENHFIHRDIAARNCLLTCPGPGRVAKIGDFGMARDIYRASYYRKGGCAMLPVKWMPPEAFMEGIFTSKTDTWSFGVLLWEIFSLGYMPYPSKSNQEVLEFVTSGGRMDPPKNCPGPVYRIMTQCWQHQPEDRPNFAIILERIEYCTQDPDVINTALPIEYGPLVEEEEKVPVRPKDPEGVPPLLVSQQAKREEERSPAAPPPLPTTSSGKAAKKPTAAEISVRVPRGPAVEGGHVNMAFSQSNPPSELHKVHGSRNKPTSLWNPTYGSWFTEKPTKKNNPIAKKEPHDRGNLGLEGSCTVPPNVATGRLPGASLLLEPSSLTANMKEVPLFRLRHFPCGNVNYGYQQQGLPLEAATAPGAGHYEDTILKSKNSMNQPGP
T1 sequence (P06241 whole entry, the tested form may be a part): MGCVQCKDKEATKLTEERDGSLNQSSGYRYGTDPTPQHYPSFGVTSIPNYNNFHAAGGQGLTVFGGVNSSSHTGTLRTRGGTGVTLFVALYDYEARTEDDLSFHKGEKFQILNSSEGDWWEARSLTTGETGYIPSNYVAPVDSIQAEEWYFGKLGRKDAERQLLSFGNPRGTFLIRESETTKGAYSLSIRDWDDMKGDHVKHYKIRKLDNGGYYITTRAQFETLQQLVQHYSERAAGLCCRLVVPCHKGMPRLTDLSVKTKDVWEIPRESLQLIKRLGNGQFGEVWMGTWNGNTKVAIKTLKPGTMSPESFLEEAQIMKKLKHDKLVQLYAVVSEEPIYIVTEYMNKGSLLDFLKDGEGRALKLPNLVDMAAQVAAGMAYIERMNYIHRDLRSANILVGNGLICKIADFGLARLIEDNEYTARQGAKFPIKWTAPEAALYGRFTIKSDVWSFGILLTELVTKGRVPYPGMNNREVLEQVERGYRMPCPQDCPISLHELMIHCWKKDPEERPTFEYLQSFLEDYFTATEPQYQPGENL

`CN1CCN(c2ccc(C(=O)Nc3n[nH]c4cc(-c5ccc(O)cc5)c(Cc5cc(F)cc(F)c5)cc34)c(NC3CCOCC3)c2)CC1` [Example 3, N-[5-[(3,5-difluorophenyl)methyl]-6-(4-hydroxyphenyl)-1H-indazol-3-yl]-4-(4-methylpiperazin-1-yl)-2-(tetrahydropyran-4-ylamino)benzamide]: the IC50 in assay [1] is 0.052 µM; in assay [2], 0.034 µM; in assay [3] it was 0.036 µM. The GI50 in assay [4] is 0.018 µM.
